One series deals with human red blood cells. Put plainly: Hemolytic activity. It is filed as cell-based. The procedure: Hemolytic activity was studied by incubating the fusion constructs with human red blood cells at concentrations of 0.01, 0.1, 1, 10 and 50 μM for 2 hours. Saline and 0.1% Triton served as controls.
Hemolytic activity of the compounds was studied by incubating EP-301 and EP-302 with human red blood cells at concentrations of 0.01, 0.1, 1, 10 and 50 μM for 2 hours.

In series [1] the test system is MDA-MB-435S breast cancer cells. Type of series: cell-based, human. On the procedure:
Twelve different fusion constructs were analyzed for anti-cancer activity in vitro against MDA-MB-435S breast cancer cells and for hemolytic activity in vitro to human red blood cells. Fusion constructs of the following sequence were tested:
The peptide conjugates were freshly dissolved in saline and added into cancer cell seeded multi-well plates at increasing concentrations of 0, 0.001, 0.01, 0.1, 1, 2, 5, 10 and 100 μM. Incubations were conducted for 4 h at 37° C. Cell viability was determined using formazan conversion assays (MTT assays). Controls were treated with USP saline or 0.1% TritonX-100™ as reference for 0 and 100% cell death, respectively. Cytotoxicity was evaluated as an IC50 value.

The target in series [2] is T1, nucleolin expressed on the surface of human cancer cell lines (human, UniProt P19338). Kind of series: cell-based or functional assay.
Series [3] deals with T1, nucleolin expressed on the surface of …. Kind of series: cell-based or functional assay. The source holds these as a separate data set.
Series [4] has the same target. Put plainly: cell-based or functional assay. This is another data set of the same source.
Setting [5] is: MDA-MB-435S, 4 h at 37° C, MTT, read-out: IC50.

This is an account of results in patent US20110124564A1, “NUCLEOLIN-BINDING PEPTIDES, NUCLEOLIN- BINDING LYTIC PEPTIDES, FUSION CONSTRUCTS AND METHODS OF MAKING AND USING SAME” (ESPERANCE PHARMACEUTICALS, INC., published 2011).

Values joined by “and” are separate entries in the source; they are usually repeats but may differ in a detail not shown here. Equal values may be shown once. Read-outs that look alike come from different tables or passages of the source. Residues, ends and D or L forms follow the SMILES beside them.

What is called IC50 is the concentration needed to halve the response being measured. Turning to `CC(C)C[C@H](NC(=O)[C@H](CCCNC(=N)N)NC(=O)[C@H](C)NC(=O)[C@H](Cc1ccccc1)NC(=O)[C@H](CCCCN)NC(=O)[C@H](C)NC(=O)[C@H](Cc1ccccc1)NC(=O)[C@H](CCCCN)NC(=O)[C@H](CCCCN)NC(=O)[C@H](C)NC(=O)[C@H](Cc1ccccc1)NC(=O)[C@H](CCCCN)NC(=O)[C@H](C)NC(=O)[C@H](Cc1ccccc1)NC(=O)[C@H](CCCCN)NC(=O)[C@H](CCCCN)NC(=O)[C@H](C)NC(=O)[C@H](Cc1ccccc1)NC(=O)[C@H](CCCCN)NC(=O)[C@H](C)NC(=O)[C@H](Cc1ccccc1)NC(=O)[C@@H](N)CCCCN)C(=O)N[C@@H](Cc1ccccc1)C(=O)N[C@@H](C)C(=O)N[C@@H](CCCCN)C(=O)O` (H-KFAKFAKKFAKFAKKFAKFARLFAK-OH), the HA50 with human red blood cells (human red blood cells, 2 hours) was 14.3 µM and 14.3 ± 2.1 µM. Moreover, in series [1] (setting [5]), the half-maximal inhibitory concentration (IC50) came to 1.23 ± 0.7 µM.

For the molecule `CC(C)C[C@H](NC(=O)[C@H](CCCNC(=N)N)NC(=O)[C@H](C)NC(=O)[C@H](CO)NC(=O)[C@H](CCCNC(=N)N)NC(=O)[C@H](CCCNC(=N)N)NC(=O)[C@H](CCC(N)=O)NC(=O)[C@@H]1CCCN1C(=O)[C@H](C)NC(=O)[C@H](CCCNC(=N)N)NC(=O)[C@H](CCCCN)NC(=O)[C@H](CCCCN)NC(=O)[C@H](C)NC(=O)[C@H](Cc1ccccc1)NC(=O)[C@H](CCCCN)NC(=O)[C@H](CCCCN)NC(=O)[C@H](C)NC(=O)[C@H](Cc1ccccc1)NC(=O)[C@H](CCCCN)NC(=O)[C@H](C)NC(=O)[C@H](Cc1ccccc1)NC(=O)[C@H](CCCCN)NC(=O)[C@H](CCCCN)NC(=O)[C@H](C)NC(=O)[C@H](Cc1ccccc1)NC(=O)[C@H](CCCCN)NC(=O)[C@H](C)NC(=O)[C@H](Cc1ccccc1)NC(=O)[C@@H](N)CCCCN)C(=O)N[C@@H](CO)C(=O)N[C@@H](C)C(=O)N[C@@H](CCCCN)C(=O)O` (H-KFAKFAKKFAKFAKKFAKKRAPQRRSARLSAK-OH; N-terminus and C-terminus assumed), in the series with human red blood cells, the HA50 result is given as “Not hemolytic”. The same molecule yielded an IC50 in series [1] (4 h) of 7.3 µM.

Turning to `CC(C)C[C@H](NC(=O)[C@H](CCCNC(=N)N)NC(=O)[C@H](C)NC(=O)[C@H](CCCNC(=N)N)NC(=O)[C@H](CCCCN)NC(=O)[C@H](C)NC(=O)[C@H](Cc1ccccc1)NC(=O)[C@H](CCCCN)NC(=O)[C@H](CCCCN)NC(=O)[C@H](C)NC(=O)[C@H](Cc1ccccc1)NC(=O)[C@H](CCCCN)NC(=O)[C@H](C)NC(=O)[C@H](Cc1ccccc1)NC(=O)[C@H](CCCCN)NC(=O)[C@H](CCCCN)NC(=O)[C@H](C)NC(=O)[C@H](Cc1ccccc1)NC(=O)[C@H](CCCCN)NC(=O)[C@H](C)NC(=O)[C@H](Cc1ccccc1)NC(=O)[C@@H](N)CCCCN)C(=O)N[C@@H](CCC(N)=O)C(=O)N[C@@H](CCCNC(=N)N)C(=O)N[C@@H](CCCNC(=N)N)C(=O)O` (H-KFAKFAKKFAKFAKKFAKRARLQRR-OH), the HA50 result with human red blood cells was “Not hemolytic”. This molecule also showed an IC50 in series [1] (4 h) of 1.6 ± 0.05 µM.

For the molecule `CC(C)C[C@H](NC(=O)[C@H](CCCNC(=N)N)NC(=O)[C@H](C)NC(=O)[C@H](CCCNC(=N)N)NC(=O)[C@H](CCCCN)NC(=O)[C@H](C)NC(=O)[C@H](Cc1ccccc1)NC(=O)[C@H](CCCCN)NC(=O)[C@H](CCCCN)NC(=O)[C@H](C)NC(=O)[C@H](Cc1ccccc1)NC(=O)[C@H](CCCCN)NC(=O)[C@H](C)NC(=O)[C@H](Cc1ccccc1)NC(=O)[C@H](CCCCN)NC(=O)[C@H](CCCCN)NC(=O)[C@H](C)NC(=O)[C@H](Cc1ccccc1)NC(=O)[C@H](CCCCN)NC(=O)[C@H](C)NC(=O)[C@H](Cc1ccccc1)NC(=O)[C@@H](N)CCCCN)C(=O)N[C@@H](CCC(N)=O)C(=O)N[C@@H](CCCNC(=N)N)C(=O)N[C@@H](CCCNC(=N)N)C(=O)N[C@@H](Cc1ccccc1)C(=O)O` (H-KFAKFAKKFAKFAKKFAKRARLQRRF-OH), in the series with human red blood cells, the HA50 result is given as “Not hemolytic”. Besides, in series [1] (4 h), it took 0.87 ± 0.003 µM to reach half-maximal inhibition (IC50).

For the molecule `CC(C)C[C@H](NC(=O)[C@H](CCCNC(=N)N)NC(=O)[C@H](C)NC(=O)[C@H](CO)NC(=O)[C@H](CCCNC(=N)N)NC(=O)[C@H](CCCNC(=N)N)NC(=O)[C@H](CCC(N)=O)NC(=O)[C@H](CC(C)C)NC(=O)[C@H](CCCNC(=N)N)NC(=O)[C@H](CCCCN)NC(=O)[C@H](C)NC(=O)[C@H](Cc1ccccc1)NC(=O)[C@H](CCCCN)NC(=O)[C@H](CCCCN)NC(=O)[C@H](C)NC(=O)[C@H](Cc1ccccc1)NC(=O)[C@H](CCCCN)NC(=O)[C@H](C)NC(=O)[C@H](Cc1ccccc1)NC(=O)[C@H](CCCCN)NC(=O)[C@H](CCCCN)NC(=O)[C@H](C)NC(=O)[C@H](Cc1ccccc1)NC(=O)[C@H](CCCCN)NC(=O)[C@H](C)NC(=O)[C@H](Cc1ccccc1)NC(=O)[C@@H](N)CCCCN)C(=O)N[C@@H](CO)C(=O)N[C@@H](C)C(=O)N[C@@H](CCCCN)C(=O)O` (H-KFAKFAKKFAKFAKKFAKRLQRRSARLSAK-OH), the HA50 was 56 µM in the series on human red blood cells (human red blood cells, 2 hours) and 56 ± 8.5 µM in the series on human red blood cells (human red blood cells, 2 hours, listed as KFAKFAKKFAKFAICKFAKR19LQRRSARLSAK30). Also, in series [1] (setting [5]), the IC50 was found to be 2.2 ± 0.3 µM.

For the molecule `CC(C)C[C@H](NC(=O)[C@H](CCCNC(=N)N)NC(=O)[C@H](C)NC(=O)[C@H](CO)NC(=O)[C@H](CCCCN)NC(=O)[C@H](C)NC(=O)[C@H](Cc1ccccc1)NC(=O)[C@H](CCCCN)NC(=O)[C@H](CCCCN)NC(=O)[C@H](C)NC(=O)[C@H](Cc1ccccc1)NC(=O)[C@H](CCCCN)NC(=O)[C@H](C)NC(=O)[C@H](Cc1ccccc1)NC(=O)[C@H](CCCCN)NC(=O)[C@H](CCCCN)NC(=O)[C@H](C)NC(=O)[C@H](Cc1ccccc1)NC(=O)[C@H](CCCCN)NC(=O)[C@H](C)NC(=O)[C@H](Cc1ccccc1)NC(=O)[C@@H](N)CCCCN)C(=O)N[C@@H](CO)C(=O)N[C@@H](C)C(=O)N[C@@H](CCCCN)C(=O)O` (H-KFAKFAKKFAKFAKKFAKSARLSAK-OH), half-maximal inhibition in series [1] (4 h) (IC50) required 4.1 µM.

Turning to `CC(C)C[C@H](NC(=O)[C@H](CCCNC(=N)N)NC(=O)[C@H](C)NC(=O)[C@@H](NC(=O)[C@H](CCCCN)NC(=O)[C@H](C)NC(=O)[C@H](Cc1ccccc1)NC(=O)[C@H](CCCCN)NC(=O)[C@H](CCCCN)NC(=O)[C@H](C)NC(=O)[C@H](Cc1ccccc1)NC(=O)[C@H](CCCCN)NC(=O)[C@H](C)NC(=O)[C@H](Cc1ccccc1)NC(=O)[C@H](CCCCN)NC(=O)[C@H](CCCCN)NC(=O)[C@H](C)NC(=O)[C@H](Cc1ccccc1)NC(=O)[C@H](CCCCN)NC(=O)[C@H](C)NC(=O)[C@H](Cc1ccccc1)NC(=O)[C@@H](N)CCCCN)C(C)C)C(=O)N[C@@H](CCC(N)=O)C(=O)N[C@@H](CCCNC(=N)N)C(=O)N[C@@H](CCCNC(=N)N)C(=O)N[C@@H](Cc1ccccc1)C(=O)N[C@@H](C)C(=O)O` (H-KFAKFAKKFAKFAKKFAKVARLQRRFA-OH), the HA50 entry with human red blood cells is listed as “Not hemolytic”. Moreover, it took 0.8 ± 0.16 µM to reach half-maximal inhibition in series [1] (4 h) (IC50).

As for `CC(C)C[C@H](NC(=O)[C@H](CCCNC(=N)N)NC(=O)[C@H](C)NC(=O)[C@H](Cc1ccccc1)NC(=O)[C@H](CCCNC(=N)N)NC(=O)[C@H](CCCNC(=N)N)NC(=O)[C@H](CCC(N)=O)NC(=O)[C@H](CC(C)C)NC(=O)[C@H](CCCNC(=N)N)NC(=O)[C@H](C)NC(=O)[C@@H](NC(=O)[C@H](CCCCN)NC(=O)[C@H](C)NC(=O)[C@H](Cc1ccccc1)NC(=O)[C@H](CCCCN)NC(=O)[C@H](CCCCN)NC(=O)[C@H](C)NC(=O)[C@H](Cc1ccccc1)NC(=O)[C@H](CCCCN)NC(=O)[C@H](C)NC(=O)[C@H](Cc1ccccc1)NC(=O)[C@H](CCCCN)NC(=O)[C@H](CCCCN)NC(=O)[C@H](C)NC(=O)[C@H](Cc1ccccc1)NC(=O)[C@H](CCCCN)NC(=O)[C@H](C)NC(=O)[C@H](Cc1ccccc1)NC(=O)[C@@H](N)CCCCN)C(C)C)C(=O)N[C@@H](Cc1ccccc1)C(=O)N[C@@H](C)C(=O)N[C@@H](CCCCN)C(=O)O` (H-KFAKFAKKFAKFAKKFAKVARLQRRFARLFAK-OH), inhibition in series [1] (4 h) was half-maximal at 0.4 ± 0.002 µM (IC50).

Turning to KFAKFAKKFAKFAKKFAKKDEPQRRSARLSAK [EP-301], in series [2], the “IC50 of cytotoxicity (MTT), MDA-MB-435S breast cancer cells, 4 h” value was 64.8 µM. In series [3], the “IC50 of cytotoxicity (MTT), MDA-MB-435S breast cancer cells, time course, 30 minutes” value amounted to 48 µM; the “IC50 of cytotoxicity (MTT), MDA-MB-435S breast cancer cells, time course, 6 h” value was more than 40 µM; the “IC50 of cytotoxicity (MTT), MDA-MB-435S breast cancer cells, time course, 24 h” value was 12 µM.

Turning to RVRLQRRSARLSAK [R1VRLQRRSARLSAK14], the “IC50 of cytotoxicity (MTT), MDA-MB-435S breast cancer cells, 120 h” value (from here on “IC50 of cytotoxicity (MTT) … 120 h”) in series [4] is 1.9 µM.

As for KDEPQRRSARLSAK [F3-14 mer fragment], in series [4], the “IC50 of cytotoxicity (MTT) … 120 h” value turned out to be 11.1 µM.

For HAHLQRRSARLSAK [H1AHLQRRSARLSAK14], the “IC50 of cytotoxicity (MTT) … 120 h” value in series [4] worked out at 4.7 µM.

For the molecule RARLQRRSARLS [R1ARLQRRSARLS12], the “IC50 of cytotoxicity (MTT) … 120 h” value in series [4] turned out to be 6.5 µM.

In the case of RARLQRRSARLSAK, the “IC50 of cytotoxicity (MTT) … 120 h” value in series [4] is 2.4 µM.

For the molecule RARLQRRSARL [R1ARLQRRSARL11], in series [4], the “IC50 of cytotoxicity (MTT) … 120 h” value was determined as 5.4 µM.

Regarding HARLQRRSARLSAK [H1ARLQRRSARLSAK14], in series [4], the “IC50 of cytotoxicity (MTT) … 120 h” value turned out to be 3.2 µM.
